Among the test systems are A498; A549; ACHN; COLO 205; EKVX; HCT-116; HOP-62; HT-29; KM12; MCF7; NCI-H226; NCI-H23; NCI-H460; NCI-H522; OVCAR-4; RXF 393; SF-295; SK-OV-3; TK-10; UACC-257.
Common to all, as to test: NCI tumour cell line growth inhibition, 48 h

Structures can show the parent of a compound that is named as a salt.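 Each compound was tested at five concentrations against cells in 96-well plates for 48 hours. Abbreviation: GI50, concentration required for 50% inhibition of growth.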 Calls of active or inactive are those of the source. Cut-off read from the data, not from the text of the source: active = GI50 up to about 1.1 µM and inactive = higher.

For the molecule `CNCCC=C1c2ccccc2CCc2ccccc21` [NORTRIPTYLINE HYDROCHLORIDE], the GI50 with A498 is 15.4 µM (inactive); with A549 it was 16.6 µM (inactive); with ACHN it was 16.6 µM (inactive); in the assay with COLO 205, 7.62 µM (inactive); with EKVX, 15.2 µM (inactive); with HCT-116 it was 14.6 µM (inactive). Moreover, the GI50 with HOP-62 was 14.7 µM (inactive); with HT-29, 4.69 µM (inactive); in the assay with KM12, 12.2 µM (inactive); in the assay on MCF7 it was 15.7 µM (inactive); in the assay with NCI-H226, 22.1 µM (inactive); with NCI-H23, 15.7 µM (inactive). Besides, the GI50 with NCI-H460 was 14.8 µM (inactive); in the assay on NCI-H522, 14.6 µM (inactive); in the assay on OVCAR-4 it was 14 µM (inactive); in the assay with RXF 393, 9.35 µM (inactive); in the assay on SF-295, 14.6 µM (inactive); in the assay on SK-OV-3 it was 12.6 µM (inactive). The GI50 in the assay on TK-10 is 14.8 µM (inactive); with UACC-257, 7.67 µM (inactive).

With `C=CC1(c2ccc3ccccc3c2)OCC(CC)O1` (configuration not stated), the GI50 is 47.9 µM (inactive) with A549; 66.1 µM (inactive) in the assay with ACHN; 36.1 µM (inactive) with COLO 205; 25.1 µM (inactive) in the assay on EKVX; 40.9 µM (inactive) in the assay with HCT-116; 1.21 µM (inactive) in the assay with HOP-62. The GI50 with HT-29 is 29.6 µM (inactive); in the assay on KM12 it was 44.1 µM (inactive); with MCF7, 55 µM (inactive); in the assay on NCI-H226 it was 25.5 µM (inactive); in the assay with NCI-H23 it was 32.3 µM (inactive); in the assay with NCI-H460, 48.2 µM (inactive). The GI50 was 40.6 µM (inactive) with NCI-H522; 55.6 µM (inactive) in the assay on OVCAR-4; 53.8 µM (inactive) in the assay on RXF 393; 61.5 µM (inactive) in the assay with SF-295; > 100 µM (inactive) with SK-OV-3; > 100 µM (inactive) in the assay with TK-10. Also, in the assay on UACC-257, the GI50 was 60.4 µM (inactive).

`O=C(N[C@H]1c2ccsc2/C(=N/O)[C@H]1O)C(F)(F)F`: the GI50 with A498, in the assay with A549, in the assay on COLO 205, in the assay with EKVX, in the assay on HCT-116 and with HOP-62 was > 100 µM (inactive) each time. The GI50 in the assay with HT-29, in the assay on MCF7, in the assay on NCI-H226, in the assay with NCI-H23, in the assay with NCI-H460 and in the assay on RXF 393 was > 100 µM (inactive) each time. In addition, the GI50 with SF-295, with SK-OV-3, in the assay on TK-10 and in the assay on UACC-257 was > 100 µM (inactive) in each case.

With `C[C@]12CC[C@H]3[C@@H](CC=C4C[C@@H](O)CC[C@@]43C)[C@@H]1C/C(=C\c1ccc([N+](=O)[O-])cc1)[C@@H]2O`, the GI50 was 15.1 µM (inactive) in the assay on A498; 10.4 µM (inactive) in the assay on A549; 11.6 µM (inactive) in the assay on ACHN; 15.1 µM (inactive) with COLO 205; 10.6 µM (inactive) with EKVX; 3.92 µM (inactive) in the assay on HCT-116. Moreover, the GI50 was 11.7 µM (inactive) in the assay with HOP-62; 5.83 µM (inactive) in the assay with HT-29; 18.5 µM (inactive) with KM12; 6.71 µM (inactive) in the assay on MCF7; 16.8 µM (inactive) in the assay on NCI-H226; 9.98 µM (inactive) with NCI-H23. The GI50 in the assay with NCI-H460 is 16.1 µM (inactive); in the assay on NCI-H522, 9.98 µM (inactive); in the assay on OVCAR-4 it was < 0.01 µM (active); in the assay on RXF 393, 9.71 µM (inactive); in the assay with SF-295, 16.8 µM (inactive); with SK-OV-3, 13.7 µM (inactive). For the same molecule, the values for the GI50 in the assay with TK-10 and with UACC-257 were 19.4 µM (inactive) and 16.3 µM (inactive), respectively.

Consider `CSCSCC(CO)NC(=O)/C(C)=C\c1c(C)[nH]c(=O)[nH]c1=O` (configuration not stated), for which the GI50 with A498, in the assay on A549, with COLO 205, with EKVX, in the assay with HCT-116 and in the assay on HOP-62 was > 250 µM (inactive) in each case. Also, the GI50 with HT-29 was > 250 µM (inactive); in the assay on KM12, 200 µM (inactive); with MCF7, > 250 µM (inactive); in the assay with NCI-H226, > 250 µM (inactive); in the assay on NCI-H23, > 250 µM (inactive); in the assay on NCI-H460 it was > 250 µM (inactive). The GI50 with NCI-H522 was > 250 µM (inactive); in the assay with OVCAR-4, > 250 µM (inactive); in the assay on RXF 393, > 250 µM (inactive); in the assay with SF-295, > 250 µM (inactive); with SK-OV-3 it was > 250 µM (inactive); with UACC-257, 170 µM (inactive).

Take `CCCc1c(-c2ccccc2)[nH]c2ccccc2c1=O`: the GI50 is 29 µM (inactive) in the assay with A498; 34.8 µM (inactive) with ACHN; > 100 µM (inactive) in the assay with COLO 205; 37.6 µM (inactive) in the assay on EKVX; 24.3 µM (inactive) in the assay with HCT-116; 34.1 µM (inactive) in the assay with HOP-62. The GI50 with HT-29 was 22.6 µM (inactive); in the assay on KM12 it was 27.7 µM (inactive); with MCF7, 36.7 µM (inactive); in the assay with NCI-H226, > 100 µM (inactive); in the assay on NCI-H23, > 100 µM (inactive); in the assay with NCI-H460, 29.9 µM (inactive). Also, the GI50 in the assay with OVCAR-4 was > 100 µM (inactive); with RXF 393, > 100 µM (inactive); with SF-295 it was > 100 µM (inactive); with SK-OV-3 it was 42.3 µM (inactive); in the assay with TK-10 it was 32.6 µM (inactive); in the assay with UACC-257, > 100 µM (inactive).

Regarding `COc1ccc(/C=C2/C(=O)N(C(=O)c3ccccc3O)N=C2C)cc1`, the GI50 is 0.0202 µM (active) in the assay on A498; 0.175 µM (active) with A549; 0.0418 µM (active) with ACHN; 18.2 µM (inactive) in the assay with COLO 205; 0.608 µM (active) with EKVX; 0.091 µM (active) in the assay with HCT-116. The GI50 in the assay on HOP-62 was 0.356 µM (active); in the assay on HT-29, 4.57 µM (inactive); with MCF7 it was 0.617 µM (active); with NCI-H226, 1.35 µM (inactive); in the assay with NCI-H23 it was 0.114 µM (active); in the assay on NCI-H460, 0.262 µM (active). For the same molecule, the GI50 in the assay on NCI-H522 was 0.356 µM (active); with OVCAR-4, 0.655 µM (active); with RXF 393, < 0.0446 µM (active); in the assay on SF-295 it was 0.0946 µM (active); with SK-OV-3, 0.0789 µM (active); in the assay with TK-10 it was 6.04 µM (inactive). In addition, the GI50 in the assay with UACC-257 is 0.442 µM (active).

In the case of `CN1CCc2[nH]c3ccccc3c2C1`, the GI50 in the assay on A498, in the assay on A549, with COLO 205, in the assay with EKVX, in the assay with HCT-116 and in the assay on HOP-62 was > 100 µM (inactive) throughout. Besides, the GI50 in the assay on HT-29, with KM12, in the assay on MCF7, in the assay with NCI-H226, in the assay on NCI-H23 and with NCI-H460 was > 100 µM (inactive) in each case. The GI50 with NCI-H522, in the assay on OVCAR-4, in the assay with RXF 393, in the assay with SF-295, with SK-OV-3 and in the assay with UACC-257 was > 100 µM (inactive) each time.

In the case of `CC(C)(CCCCC(C)(C)C1NC(=O)N1)C1NC(=O)N1`, the GI50 with A498, in the assay with A549, in the assay on ACHN, with COLO 205, with EKVX and with HCT-116 was > 10 µM (inactive) each time. The GI50 in the assay with HOP-62, in the assay on HT-29, with KM12, in the assay on MCF7, with NCI-H226 and in the assay on NCI-H23 was > 10 µM (inactive) in each case. For the same molecule, the GI50 in the assay with NCI-H460, in the assay with NCI-H522, in the assay with OVCAR-4, in the assay with RXF 393, with SF-295 and with SK-OV-3 was > 10 µM (inactive) in each case. Further, the GI50 in the assay on TK-10 was > 10 µM (inactive).

Take `C#CC(O)(c1nc2ccccc2s1)c1nc2ccccc2s1`: the GI50 in the assay on A498 was 16.9 µM (inactive); in the assay on A549, 29 µM (inactive); in the assay on ACHN it was 23 µM (inactive); with COLO 205, 17.7 µM (inactive); with EKVX, 19.3 µM (inactive); with HCT-116, 16.3 µM (inactive). The GI50 was 26.2 µM (inactive) with HOP-62; 27.2 µM (inactive) in the assay on HT-29; 29.4 µM (inactive) in the assay on KM12; 22.2 µM (inactive) in the assay on MCF7; 20.3 µM (inactive) in the assay with NCI-H23; 17.6 µM (inactive) with NCI-H522. The GI50 was 25.8 µM (inactive) in the assay with OVCAR-4; 18.6 µM (inactive) in the assay on RXF 393; 24 µM (inactive) in the assay with SF-295; 36.6 µM (inactive) in the assay on TK-10; 25.1 µM (inactive) with UACC-257.

For the molecule `C/C(=C\c1ccccc1)C(=O)CCN1CCOCC1`, the GI50 in the assay on A498 was > 56 µM (inactive); in the assay with A549, > 90.8 µM (inactive); with COLO 205, 17.2 µM (inactive); with EKVX, 27.8 µM (inactive); in the assay with HCT-116, 28 µM (inactive); with HOP-62 it was > 100 µM (inactive). Moreover, the GI50 with HT-29 is 18.8 µM (inactive); with KM12, 14.9 µM (inactive); in the assay on MCF7 it was 7.87 µM (inactive); in the assay on NCI-H226, > 46.1 µM (inactive); in the assay with NCI-H23, 16.9 µM (inactive); in the assay on NCI-H460, 62.1 µM (inactive). Moreover, the GI50 with NCI-H522 is 7.94 µM (inactive); with OVCAR-4, 18 µM (inactive); in the assay with RXF 393, 19.7 µM (inactive); in the assay on SF-295 it was > 100 µM (inactive); in the assay with SK-OV-3 it was > 100 µM (inactive); in the assay on UACC-257 it was 15.6 µM (inactive).
